Results as given in the supplement of paper PMC11208160.

Test: recombinant UMI read abundance after kanamycin selection (control-corrected) (log10(CPM+1)); higher = more efficient recombination; extreme values may be limits of the assay; sequences stand for … in AGTGCAGAGAAAATCGGCCAGTTTTCTCTGCCTGCAGTCCGCATGCCGTGGGACCCCTTGGGTTCTAACCTGTTGCCTAGATTTATGCAGCGGACTGCCTTTCTCCCAAAGTGATAAACCGG…AGGTTGGTTTCACT; site = the 11-nt donor
In short: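 The measure is log10(CPM+1) for recombinant UMIs. These were PCR-amplified across the donor–target junction and sequenced after Escherichia coli carrying a donor and donor-binding-loop pair library and a target plasmid with T7-inducible IS621 bridge recombinase was plated on IPTG (0.07 mM) plus kanamycin or unselected. CPM were averaged over two replicates and scaled by control-derived factors.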
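Also: IS621 bridge recombinase in Escherichia coli cells against a fixed T5 target plasmid.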

Row | Sequence | recombinant UMI read abundance (log10)
1 | CGTATAACATGGACCGGTTTTCCCGGTAATCCGTATTTGAT (site CGTATAACTAT) | 0.94
2 | CGTCATGCATGGACCGGTTTTCCCGGTAATCCGTATTTGAC (site CGTCATGCTGT) | 1.2
3 | CGTCTTTCATGGACCGGTTTTCCCGGTAATCCGTATTTGCA (site CGTCTTTCTTG) | 0
4 | CGTGAAACATGGACCGGTTTTCCCGGTAATCCGTATTTGTT (site CGTGAAACTAA) | 1.61
5 | CGTGAAACATGGACCGGTTTTCCCGGTAATCCGTATTTGTT (site CGTGCAACTAA) | 0
6 | CGTGAAACATGGACCGGTTTTCCCGGTAATCCGTATTTGTT (site CGTGGAACTAA) | 0
7 | CGTGAAACATGGACCGGTTTTCCCGGTAATCCGTATTTGTT (site CGTGTAACTAA) | 0.0209
8 | CGTGAGGCATGGACCGGTTTTCCCGGTAATCCGTATTTGCC (site CGTGAGGCTGG) | 0.525
9 | CGTGCCCCATGGACCGGTTTTCCCGGTAATCCGTATTTGGC (site CGTGCCCCTGC) | 0
10 | CGTGGAACATGGACCGGTTTTCCCGGTAATCCGTATTTGCG (site CGTGGAACTCG) | 2.05
11 | CGTGGAGCATGGACCGGTTTTCCCGGTAATCCGTATTTGTT (site CGTGGAACTAA) | 1.66
12 | CGTGGAGCATGGACCGGTTTTCCCGGTAATCCGTATTTGTT (site CGTGGACCTAA) | 0.00893
13 | CGTGGAGCATGGACCGGTTTTCCCGGTAATCCGTATTTGTT (site CGTGGAGCTAA) | 2.02
14 | CGTGGAGCATGGACCGGTTTTCCCGGTAATCCGTATTTGTT (site CGTGGATCTAA) | 1.23
15 | CGTGGATCATGGACCGGTTTTCCCGGTAATCCGTATTTGTT (site CGTGGAACTAA) | 0.0027
16 | CGTGGATCATGGACCGGTTTTCCCGGTAATCCGTATTTGTT (site CGTGGACCTAA) | 0.0255
17 | CGTGGATCATGGACCGGTTTTCCCGGTAATCCGTATTTGTT (site CGTGGAGCTAA) | 0
18 | CGTGGATCATGGACCGGTTTTCCCGGTAATCCGTATTTGTT (site CGTGGATCTAA) | 2.34
19 | CGTGGTACATGGACCGGTTTTCCCGGTAATCCGTATTTGTT (site CGTGGAACTAA) | 0.177
20 | CGTGGTACATGGACCGGTTTTCCCGGTAATCCGTATTTGTT (site CGTGGCACTAA) | 0.0912
21 | CGTGGTACATGGACCGGTTTTCCCGGTAATCCGTATTTGTT (site CGTGGGACTAA) | 0
22 | CGTGGTACATGGACCGGTTTTCCCGGTAATCCGTATTTGTT (site CGTGGTACTAA) | 1.25
23 | CGTGTGGCATGGACCGGTTTTCCCGGTAATCCGTATTTGCT (site CGTATGGCTAG) | 1.01
24 | CGTGTGGCATGGACCGGTTTTCCCGGTAATCCGTATTTGCT (site CGTCTGGCTAG) | 0.00526
25 | CGTGTGGCATGGACCGGTTTTCCCGGTAATCCGTATTTGCT (site CGTGTGGCTAG) | 3.26

Row | Sequence | recombinant UMI read abundance (log10)
26 | CGTGTGGCATGGACCGGTTTTCCCGGTAATCCGTATTTGCT (site CGTTTGGCTAG) | 0
27 | CGTGTTGCATGGACCGGTTTTCCCGGTAATCCGTATTTGTC (site CGTGTTGCTGA) | 2.08
28 | CGTTAGGCATGGACCGGTTTTCCCGGTAATCCGTATTTGAG (site CGTTAGACTCT) | 0.855
29 | CGTTAGGCATGGACCGGTTTTCCCGGTAATCCGTATTTGAG (site CGTTAGCCTCT) | 0.00789
30 | CGTTAGGCATGGACCGGTTTTCCCGGTAATCCGTATTTGAG (site CGTTAGGCTCT) | 1.23
31 | CGTTAGGCATGGACCGGTTTTCCCGGTAATCCGTATTTGAG (site CGTTAGTCTCT) | 0.173
32 | CGTTATCCATGGACCGGTTTTCCCGGTAATCCGTATTTGTT (site CGGAATCCTAA) | 0
33 | CGTTATCCATGGACCGGTTTTCCCGGTAATCCGTATTTGTT (site CGTTATCCTAA) | 0.375
34 | CGTTCATCATGGACCGGTTTTCCCGGTAATCCGTATTTGCT (site CGATCATCTAG) | 0
35 | CGTTCATCATGGACCGGTTTTCCCGGTAATCCGTATTTGCT (site CGCTCATCTAG) | 1.41
36 | CGTTCATCATGGACCGGTTTTCCCGGTAATCCGTATTTGCT (site CGGTCATCTAG) | 0
37 | CGTTCATCATGGACCGGTTTTCCCGGTAATCCGTATTTGCT (site CGTTCATCTAG) | 1.35
38 | CGTTCCCCATGGACCGGTTTTCCCGGTAATCCGTATTTGTA (site AGTTCCCCTTA) | 0.00297
39 | CGTTCCCCATGGACCGGTTTTCCCGGTAATCCGTATTTGTA (site CGTTCCCCTTA) | 0.531
40 | CGTTCCCCATGGACCGGTTTTCCCGGTAATCCGTATTTGTA (site GGTTCCCCTTA) | 0.00349
41 | CGTTCCCCATGGACCGGTTTTCCCGGTAATCCGTATTTGTA (site TGTTCCCCTTA) | 0.00473
42 | CGTTCGGCATGGACCGGTTTTCCCGGTAATCCGTATTTGCT (site CGTTAGGCTAG) | 0.00568
43 | CGTTCGGCATGGACCGGTTTTCCCGGTAATCCGTATTTGCT (site CGTTCGGCTAG) | 1.63
44 | CGTTCGGCATGGACCGGTTTTCCCGGTAATCCGTATTTGCT (site CGTTGGGCTAG) | 0.00466
45 | CGTTCGGCATGGACCGGTTTTCCCGGTAATCCGTATTTGCT (site CGTTTGGCTAG) | 0
46 | CGTTGCTCATGGACCGGTTTTCCCGGTAATCCGTATTTGAT (site CGTTGCTCTAT) | 1.8
47 | CGTTGTACATGGACCGGTTTTCCCGGTAATCCGTATTTGCT (site CGTTGTACTAG) | 1.39
48 | CGTTTCGCATGGACCGGTTTTCCCGGTAATCCGTATTTGCT (site CGTTTAGCTAG) | 0
49 | CGTTTCGCATGGACCGGTTTTCCCGGTAATCCGTATTTGCT (site CGTTTCGCTAG) | 0.892
50 | CGTTTCGCATGGACCGGTTTTCCCGGTAATCCGTATTTGCT (site CGTTTGGCTAG) | 0

Row | Sequence | recombinant UMI read abundance (log10)
51 | CGTTTCGCATGGACCGGTTTTCCCGGTAATCCGTATTTGCT (site CGTTTTGCTAG) | 0
52 | CGTTTGACATGGACCGGTTTTCCCGGTAATCCGTATTTGAG (site CGTTAGACTCT) | 0.00643
53 | CGTTTGACATGGACCGGTTTTCCCGGTAATCCGTATTTGAG (site CGTTCGACTCT) | 0
54 | CGTTTGACATGGACCGGTTTTCCCGGTAATCCGTATTTGAG (site CGTTGGACTCT) | 0.0522
55 | CGTTTGACATGGACCGGTTTTCCCGGTAATCCGTATTTGAG (site CGTTTGACTCT) | 1.03
56 | CGTTTGGCATGGACCGGTTTTCCCGGTAATCCGTATTTGCA (site CGTTTGGCTAG) | 0
57 | CGTTTGGCATGGACCGGTTTTCCCGGTAATCCGTATTTGCA (site CGTTTGGCTCG) | 0.024
58 | CGTTTGGCATGGACCGGTTTTCCCGGTAATCCGTATTTGCA (site CGTTTGGCTGG) | 0
59 | CGTTTGGCATGGACCGGTTTTCCCGGTAATCCGTATTTGCA (site CGTTTGGCTTG) | 0.562
60 | CTAACAGCATGGACCGGTTTTCCCGGTAATCCGTATTTGTA (site CTAACAGCTTA) | 2.48
61 | CTAACATCATGGACCGGTTTTCCCGGTAATCCGTATTTGCT (site CTAACATCTAG) | 2.12
62 | CTAACTGCATGGACCGGTTTTCCCGGTAATCCGTATTTGTC (site CTAACTGCTGA) | 2.12
63 | CTAAGACCATGGACCGGTTTTCCCGGTAATCCGTATTTGCG (site CTAAGACCTCG) | 0.0114
64 | CTACAACCATGGACCGGTTTTCCCGGTAATCCGTATTTGAT (site CTACAACCTAT) | 0
65 | CTACCATCATGGACCGGTTTTCCCGGTAATCCGTATTTGAC (site CTACCATCTGT) | 2.39
66 | CTACCATCATGGACCGGTTTTCCCGGTAATCCGTATTTGAC (site CTAGTATCTGT) | 0
67 | CTACCGCCATGGACCGGTTTTCCCGGTAATCCGTATTTGAC (site CTACCGCCTGT) | 0.322
68 | CTACCGCCATGGACCGGTTTTCCCGGTAATCCGTATTTGCG (site CTACCGCCTCG) | 0.268
69 | CTACGAACATGGACCGGTTTTCCCGGTAATCCGTATTTGGG (site CTACGAACTCC) | 1.11
70 | CTACGCCCATGGACCGGTTTTCCCGGTAATCCGTATTTGTG (site CTACGCCCTCA) | 0.232
71 | CTACGTCCATGGACCGGTTTTCCCGGTAATCCGTATTTGAA (site CTACGTCCTTT) | 1.23
72 | CTACTAACATGGACCGGTTTTCCCGGTAATCCGTATTTGCA (site CTACTAACTTA) | 1.4
73 | CTACTAACATGGACCGGTTTTCCCGGTAATCCGTATTTGCA (site CTACTAACTTC) | 0.0167
74 | CTACTAACATGGACCGGTTTTCCCGGTAATCCGTATTTGCA (site CTACTAACTTG) | 2.47
75 | CTACTAACATGGACCGGTTTTCCCGGTAATCCGTATTTGCA (site CTACTAACTTT) | 1.47
